Measured values taken from patent US7935709B2, “2-quinazolinone compounds and methods of use” (Amgen Inc., priority 2006, dated 2011).

Assays:
[1] = tested on: TNF-α secretion by THP1 cells; assay: Lipopolysaccharide-Activated THP1 Cell TNF Production Assay (THP-cellular TNF release assay); assay type: cell-based; conditions: Homo sapiens, THP-1, LPS-activated THP1 cells
Experimental: Lipopolysaccharide-Activated THP1 Cell TNF Production Assay
THP1 cells are re-suspended in fresh THP1 media (RPMI 1640, 10% heat-inactivated FBS, 1XPGS, 1XNEM, plus 30 μM βME) at a concentration of 1E6/mL. One hundred microliters of cells per well were plated in a polystyrene 96-well tissue culture. One microgram per mL of bacterial LPS is prepared in THP1 media and is transferred to the wells. Test compounds are dissolved in 100% DMSO and are serially diluted 3 fold in a polypropylene 96-well microtiter plate (drug plate). HI control and LO control wells contain only DMSO. One microliter of test compound from the drug plate followed by 10 μL of LPS were transferred to the cell plate. The treated cells are induced to synthesize and secrete TNF-α at 37° C. for 3 h. Forty microliters of conditioned media are transferred to a 96-well polypropylene plate containing 110 μL of ECL buffer (50 mM Tris-HCl pH 8.0, 100 mM NaCl, 0.05% Tween 20, 0.05% NaN3 and 1% FBS) supplemented with 0.44 nM MAB610 monoclonal Ab (R&D Systems), 0.34 nM ruthenylated AF210NA polyclonal Ab (R&D Systems) and 44 μg/mL sheep anti-mouse M280 Dynabeads (Dynal). After a 2 h incubation at room temperature with shaking, the reaction is read on the ECL M8 Instrument (IGEN Inc.). A low voltage is applied to the ruthenylated TNF-α immune complexes, which in the presence of TPA (the active component in Origlo), results in a cyclical redox reaction generating light at […]. The amount of secreted TNF-αin the presence of compound compared with that in the presence of DMSO vehicle alone (HI control) is calculated using the formula: % control (POC)=(cpd−average LO)/(average HI−average LO)*100. Data (consisting of POC and inhibitor concentration in μM) is fitted to a 4-parameter equation (y=A+((B−A)/(1+((x/C)^D))), where A is the minimum y (POC) value, B is the maximum y (POC), C is the x (cpd concentration) at the point of inflection and D is the slope factor) using a Levenburg-Marquardt non-linear regression algorithm.

[2] = tested on: TNF production by monocytes; assay: Lipopolysaccharide-Activated Monocyte TNF Production Assay (LPS induced TNF release); assay type: cell-based; conditions: Homo sapiens, LPS-activated adherent monocytes from PBMCs
Experimental: Lipopolysaccharide-Activated Monocyte TNF Production Assay
Test compounds were evaluated in vitro for the ability to inhibit the production of TNF by monocytes activated with bacterial lipopolysaccharide (LPS). Fresh residual source leukocytes (a byproduct of plateletpheresis) were obtained from a local blood bank, and peripheral blood mononuclear cells (PBMCs) were isolated by density gradient centrifugation on Ficol-Paque Plus (Pharmacia). PBMCs were suspended at 2×10^6/mL in DMEM supplemented to contain 2% FCS, 10 mM, 0.3 mg/mL […], 100 U/mL penicillin G and […] streptomycin sulfate (complete media). Cells were plated into Falcon flat bottom, 96 well culture plates (200 μL/well) and cultured overnight at 37° C. and 6% CO2. Non-adherent cells were removed by washing with 200 μl/well of fresh medium. Wells containing adherent cells (˜70% monocytes) were replenished with 100 μL of fresh medium.
Preparation of Test Compound Stock Solutions
Test compounds were dissolved in […]. Compound stock solutions were prepared to an initial concentration of […]. Stocks were diluted initially to 20-200 μM in complete media. Nine two-fold serial dilutions of each compound were then prepared in complete medium. Treatment of cells with test compounds and activation of TNF production with lipopolysaccharide.
One hundred microliters of each test compound dilution were added to microtiter wells containing adherent monocytes and 100 μL complete medium. Monocytes were cultured with test compounds for 60 min at which time 25 μL of complete medium containing 30 ng/mL lipopolysaccharide from E. coli K532 were added to each well. Cells were cultured an additional 4 hrs. Culture supernatants were then removed and TNF presence in the supernatants was quantified using an ELISA.
Flat bottom, 96 well Corning High Binding ELISA plates were coated overnight (4° C.) with 150 μL/well of 3 μg/mL murine anti-human TNF-α MAb (R&D Systems #MAB210). Wells were then blocked for 1 h at room temperature with 200 μL/well of CaCl2-free ELISA buffer supplemented to contain 20 mg/mL BSA (standard ELISA buffer: […], 150 mM NaCl, 2 mM CaCl2, 0.15 mM thimerosal, pH 7.4). Plates were washed and replenished with 100 μL of test supernatants (diluted 1:3) or standards. Standards consisted of eleven 1.5-fold serial dilutions from a stock of 1 ng/mL recombinant human TNF (R&D Systems). Plates were incubated at room temperature for 1 h on orbital shaker (300 rpm), washed and replenished with 100 μL/well of 0.5 μg/mL goat anti-human TNF-α(R&D systems #AB-210-NA) biotinylated at a 4:1 ratio. Plates were incubated for 40 min, washed and replenished with 100 μL/well of alkaline phosphatase-conjugated streptavidin (Jackson ImmunoResearch #016-050-084) at 0.02 μg/mL. Plates were incubated 30 min, washed and replenished with 200 μL/well of 1 mg/mL of p-nitrophenyl phosphate. After 30 min, plates were read at 405 nm on a Vmax plate reader.
Standard curve data were fit to a second order polynomial and unknown TNF-α concentrations determined from their OD by solving this equation for concentration. TNF concentrations were then plotted vs. test compound concentration using a second order polynomial. This equation was then used to calculate the concentration of test compounds causing a 50% reduction in TNF production.

Compound: O=c1ncc2cc(Cl)ccc2n1Cc1ccccc1 [Example 1, 1-Benzyl-6-chloroquinazolin-2-(1H)-one]
- IC50 [1]: ≤ 2.5 µM
- IC50 [2]: ≤ 25 µM

Compound: COc1ccc(CN2Cc3cc(-c4cc(C(=O)NC5CC5)ccc4C)ccc3NC2=O)cc1 [Example 2, 3-(3-(4-Methoxybenzyl)-2-oxo-1,2,3,4-tetrahydroquinazolin-6-yl)-N-cyclopropyl-4-methylbenzamide]
- IC50 [1]: ≤ 2.5 µM
- IC50 [2]: ≤ 25 µM

Compound: Cc1ccc(C(=O)NC2CC2)cc1-c1ccc2c(cnc(=O)n2-c2ccccc2Cl)c1 [Example 3]
- IC50 [2]: ≤ 25 µM

Compound: Cc1ccncc1-c1ccc2c(c1)CNC(=O)N2c1ccccc1Cl [Example 4, 1-(2-Chlorophenyl)-6-(4-methylpyridin-3-yl)-3,4-dihydroquinazolin-2(1H)-one]
- IC50 [1]: ≤ 2.5 µM
- IC50 [2]: ≤ 25 µM

Compound: Cc1ccc(C(=O)NC2CC2)cc1-c1ccc2c(c1)CNC(=O)N2c1ccccc1C [Example 5, N-Cyclopropyl-4-methyl-3-(2-oxo-1-o-tolyl-1,2,3,4-tetrahydroquinazolin-6-yl)benzamide]
- IC50 [2]: ≤ 25 µM

Compound: Cc1ccc(C(=O)NC2CC2)cc1-c1ccc2c(cnc(=O)n2-c2ccccc2C)c1 [Example 6, N-Cyclopropyl-4-methyl-3-(2-oxo-1-o-tolyl-1,2-dihydroquinazolin-6-yl)benzamide]
- IC50 [2]: ≤ 25 µM

Compound: Cc1ccc(C(=O)NC2CC2)cc1-c1ccc2c(cnc(=O)n2CCN2CCOCC2)c1 [Example 8, N-Cyclopropyl-4-methyl-3-(1-(2-morpholinoethyl)-2-oxo-1,2-dihydroquinazolin-6-yl)benzamide]
- IC50 [2]: ≤ 25 µM

Compound: Cc1ccc(C(=O)NC2CC2)cc1-c1ccc2c(cnc(=O)n2C2CCN(C(=O)OC(C)(C)C)CC2)c1 [Example 10, tert-Butyl 4-(6-(5-(cyclopropylcarbamoyl)-2-methylphenyl)-2-oxoquinazolin-1(2H)-yl)piperidine-1-carboxylate]
- IC50 [2]: ≤ 25 µM

Compound: Cc1ccc(C(=O)NC2CC2)cc1-c1ccc2c(c1)CNC(=O)N2c1ccccc1Cl [Example 11, 3-(1-(2-chlorophenyl)-2-oxo-1,2,3,4-tetrahydro-6-quinazolinyl)-N-cyclopropyl-4-methylbenzamide]
- IC50 [2]: ≤ 25 µM

Compound: Cc1ccc(C(=O)NC2CC2)cc1-c1cnc2c(c1)CNC(=O)N2c1ccccc1Cl [Example 12, 3-(1-(2-chlorophenyl)-2-oxo-1,2,3,4-tetrahydropyrido[2,3-d]pyrimidin-6-yl)-N-cyclopropyl-4-methylbenzamide]
- IC50 [1]: ≤ 2.5 µM
- IC50 [2]: ≤ 25 µM

Compound: Cc1ccc(C(=O)NC2CC2)cc1-c1ccc2c(cnc(=O)n2C2CCOCC2)c1 [Example 13, N-cyclopropyl-4-methyl-3-(2-oxo-1-(tetrahydro-2H-pyran-4-yl)-1,2-dihydro-6-quinazolinyl)benzamide]
- IC50 [2]: ≤ 25 µM
